Data taken from ChEMBL document CHEMBL1201862, “PubChem BioAssay data set” (2004).
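Exposure lasted 48 hours, with cells grown in 96-well plates and compounds tested at five concentrations. Abbreviation: GI50, concentration required for 50% inhibition of growth.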 Calls of active or inactive are those of the source. Cut-off read from the data, not from the text of the source: active = GI50 up to about 1.1 µM and inactive = higher.

How the values were obtained:
Assay in all cases: NCI anticancer screen, dose series, 48 h
HCT-116 = test system: HCT-116
SK-MEL-28 = test system: SK-MEL-28
SNB-19 = test system: SNB-19
SN12C = test system: SN12C
PC-3 = test system: PC-3
MCF7 = test system: MCF7
OVCAR-5 = test system: OVCAR-5
MOLT-4 = test system: MOLT-4
A498 = test system: A498
CAKI-1 = test system: CAKI-1
OVCAR-4 = test system: OVCAR-4
SK-MEL-2 = test system: SK-MEL-2
SK-MEL-5 = test system: SK-MEL-5
SF-539 = test system: SF-539
ACHN = test system: ACHN
UO-31 = test system: UO-31
SW-620 = test system: SW-620
TK-10 = test system: TK-10
K562 = test system: K562
HT-29 = test system: HT-29

| SMILES | GI50 (HCT-116) | GI50 (SK-MEL-28) | GI50 (SNB-19) | GI50 (SN12C) | GI50 (PC-3) | GI50 (MCF7) | GI50 (OVCAR-5) | GI50 (MOLT-4) | GI50 (A498) | GI50 (CAKI-1) | GI50 (OVCAR-4) | GI50 (SK-MEL-2) | GI50 (SK-MEL-5) | GI50 (SF-539) | GI50 (ACHN) | GI50 (UO-31) | GI50 (SW-620) | GI50 (TK-10) | GI50 (K562) | GI50 (HT-29) |
| --- | --- | --- | --- | --- | --- | --- | --- | --- | --- | --- | --- | --- | --- | --- | --- | --- | --- | --- | --- | --- |
| C=CC1(CBr)CCC(C(C)(C)Br)O1 (stereo not given) | 6.64 µM (inactive) | 7.73 µM (inactive) | 15.8 µM (inactive) | 16.6 µM (inactive) | 12 µM (inactive) | 15.6 µM (inactive) | 14.7 µM (inactive) | 2.21 µM (inactive) | 19.1 µM (inactive) | 7.23 µM (inactive) | 14.3 µM (inactive) | 12.8 µM (inactive) | 9.86 µM (inactive) | 16.9 µM (inactive) | 16.4 µM (inactive) | 12.7 µM (inactive) | 3.56 µM (inactive) | 15.1 µM (inactive) | 3.71 µM (inactive) | 5.77 µM (inactive) |
| COc1ccc(NC/C=C/C(=C/COC(C)=O)OC(C)=O)cc1 | 1.81 µM (inactive) | 1.87 µM (inactive) | 3.27 µM (inactive) | 2.12 µM (inactive) | 2.28 µM (inactive) | 2.63 µM (inactive) | 1.75 µM (inactive) | 4.75 µM (inactive) | 1.39 µM (inactive) | 1.89 µM (inactive) | 1.82 µM (inactive) | 2.28 µM (inactive) | 15.3 µM (inactive) | 2 µM (inactive) | 1.73 µM (inactive) | 12.3 µM (inactive) | 1.69 µM (inactive) | 1.87 µM (inactive) | 1.85 µM (inactive) | 2.19 µM (inactive) |
| c1ccc(C2(c3cc4ccccc4[nH]3)OCCO2)cc1 | 37.8 µM (inactive) | 28.2 µM (inactive) | > 100 µM (inactive) | 41.2 µM (inactive) | 36.6 µM (inactive) | 31 µM (inactive) | 30.8 µM (inactive) | 11.6 µM (inactive) | 37.2 µM (inactive) | 86.1 µM (inactive) | 32.2 µM (inactive) | 42.6 µM (inactive) | 23.1 µM (inactive) | > 100 µM (inactive) | 35.9 µM (inactive) | 42.6 µM (inactive) | 24 µM (inactive) | > 100 µM (inactive) | 22.2 µM (inactive) | 26.1 µM (inactive) |
| c1csc(-c2cscc2-c2ccsc2)c1 | 41.2 µM (inactive) | > 100 µM (inactive) | > 57.5 µM (inactive) | > 86.1 µM (inactive) | > 43.8 µM (inactive) | 30.6 µM (inactive) | > 69.2 µM (inactive) | 26.2 µM (inactive) | > 96.8 µM (inactive) | > 95.3 µM (inactive) | 44.5 µM (inactive) | 52.2 µM (inactive) | 75.9 µM (inactive) | > 53.2 µM (inactive) | > 83.9 µM (inactive) | > 70.8 µM (inactive) | 62.2 µM (inactive) | > 100 µM (inactive) | 31.6 µM (inactive) | > 84.9 µM (inactive) |
| Cc1ccc2c3ccc4c(c3n(C)c2c1)C(=O)C=CC4=O | 2.33 µM (inactive) | > 6.01 µM (inactive) | > 10 µM (inactive) | > 10 µM (inactive) | > 10 µM (inactive) | 3.29 µM (inactive) | > 10 µM (inactive) | 0.475 µM (active) | > 10 µM (inactive) | 3.36 µM (inactive) | > 5.12 µM (inactive) | 9.95 µM (inactive) | > 10 µM (inactive) | > 5.98 µM (inactive) | 3.51 µM (inactive) | > 10 µM (inactive) | 1.74 µM (inactive) | 4.82 µM (inactive) | 1.03 µM (active) | > 10 µM (inactive) |
| COc1c(-c2nc3ccc(N4CCN(C)CC4)cc3[nH]2)cc(OC)c2[nH]c(CO)nc12 | 58.6 µM (inactive) | > 100 µM (inactive) | 44.4 µM (inactive) | 74.6 µM (inactive) | > 100 µM (inactive) | 54.3 µM (inactive) | > 100 µM (inactive) | > 100 µM (inactive) | > 100 µM (inactive) | > 100 µM (inactive) | 72.6 µM (inactive) | > 100 µM (inactive) | > 100 µM (inactive) | > 100 µM (inactive) | > 100 µM (inactive) | > 100 µM (inactive) | 74.8 µM (inactive) | > 100 µM (inactive) | > 100 µM (inactive) | 79.8 µM (inactive) |
| O=C1C(Cl)=C(NCCO)C(=O)c2c(O)ccc(O)c21 | 1.95 µM (inactive) | 1.92 µM (inactive) | 5.33 µM (inactive) | 2.56 µM (inactive) | 2.78 µM (inactive) | 1.93 µM (inactive) | 2.37 µM (inactive) | 3.33 µM (inactive) | 1.36 µM (inactive) | > 10 µM (inactive) | 0.6 µM (active) | 3.02 µM (inactive) | 1.41 µM (inactive) | 2.52 µM (inactive) | 5.01 µM (inactive) | 6.7 µM (inactive) | 2.37 µM (inactive) | > 10 µM (inactive) | 2.59 µM (inactive) | 2.48 µM (inactive) |
